The values that follow come from patent US10172875B2, “Therapeutic combinations comprising anti-FOLR1 immunoconjugates” (ImmunoGen, Inc., priority 2015, dated 2019).

One assay relates to IGROV-1 cells. The assay is described as follows: Cell cycle analysis, IMGN853 and carboplatin (FIG. 9B). Type of assay: cell-based. Conditions: carboplatin 20 μM, IMGN853 8 nM, alone or combined, 6 hours, then 24 hour drug-free medium. How it is done:
Cells were washed, and cell cycle distribution determined following 24 hour culture in drug-free medium.

Assay [1] relates to OV90 serous ovarian tumor xenografts. The assay is described as follows: Antitumor activity of IMGN853 (2.5 mg/kg), bevacizumab and combination in OV90 tumor model (Example 3). Conditions: IMGN853 2.5 mg/kg 1× and/or bevacizumab 5 mg/kg 1×. Type of assay: in vivo, SCID mice. From the text:
FIG. 2B depicts the results.

Assay [2] has as its system platinum-resistant ovarian cancer PDXs. The assay is described as follows: IMGN853 with bevacizumab in platinum-resistant ovarian cancer PDX, 102-day study (FIG. 11B). The format is in vivo, mice. Conditions: IMGN853 5 mg/kg QWx2, bevacizumab 5 mg/kg QWx2, alone or combined. An excerpt:
Tumor growth was monitored out to 102 days. * P=0.011; ** P=0.018; ns, not significant (Wilcoxon test, non-adjusted).

Assay [3] concerns OV90 serous ovarian tumor xenografts. The assay can be described thus: Antitumor activity of IMGN853 (1.25 mg/kg), paclitaxel, bevacizumab and combinations in OV90 tumor model (Example 4). Type of assay: in vivo, SCID mice. As to conditions: single doses: IMGN853 1.25 mg/kg, paclitaxel 10 mg/kg, bevacizumab 5 mg/kg.
Method: Mice were randomized into groups (n=8 per group) by tumor volume and subsequently dosed on Day 14 post-inoculation. All treatments consisted of single doses (1×).
Tumor volumes were measured one to two times weekly in three dimensions using a caliper. […] Body weights were measured twice per week as an index of toxicity.

A word on the T/C: it is the ratio of treated to control. As for IMGN853, in the assay with IGROV-1 cells, the cell cycle distribution result is “enrichment of cells in G2/M”. Also, the values for the T/C in assay [1] and in assay [3] (alone or combined) were 36% and 37%, respectively. For the same substance, the TFS is recorded as 0/6 in assay [1] and 0/7 in assay [3]. For the same substance, the antitumor activity rating entry in assay [1] and in assay [3] was “active” throughout. For the same substance, the CR in assay [1] (responders/animals) is recorded as 0/6; in assay [3] (responders/animals) it was 0/7. The antitumor effect result in assay [2] was “moderate activity”.
